According to US20230302032A1, “ANTIBACTERIAL COMPOSITIONS AND METHODS FOR FABRICATING THEREOF” (Harrow IP LLC, priority 2020, published 2023):
Where two headings read alike, the source gives them in different places.

Tests used:
[1] = HPLC potency and stability of stored antibiotic solutions; conditions: for Stability of the composition (assay %): composition of Example 2 (with L-glycine);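 on all read-outs here: stored antibiotic compositions assayed by HPLC for remaining potency, USP acceptance requires at least 90% of nominal concentration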
Method: The final product was tested chromatographically (HPLC) for potency and stability after being stored for 6 months. […] According to the USP rules, at least a 90% concentration is required for the product to be acceptable.
The stability of this composition was then monitored for a period of 180 days.

In the case of `NC[C@H]1O[C@H](O[C@H]2[C@H](O)[C@@H](O[C@H]3O[C@H](CO)[C@@H](O)[C@H](N)[C@H]3O)[C@H](N)C[C@@H]2N)[C@H](N)C[C@@H]1O` [Tobramycin, (2S,3R,4S,5S,6R)-4-amino-2-{[(1S,2S,3R,4S,6R)-4,6-diamino-3-{[(2R,3R,5S,6R)-3-amino-6-(aminomethyl)-5-hydroxyoxan-2-yl]oxy}-2-hydroxycyclohexyl]oxy}-6-(hydroxymethyl)oxane-3,5-diol], the “Stability of the composition (assay %)” value (0 days) is reported as 102.3%, the “Stability of the composition (assay %)” value (30 days) is reported as 106.9% and the “Stability of the composition (assay %)” value (60 days) is reported as 98.9%. For the same compound, the “Stability of the composition (assay %)” value (90 days) was 97.6%, the “Stability of the composition (assay %)” value (180 days) was 97.9% and the storage stability alone (180 days) was “withstood the storage for 180 days very well”.

In the case of Vancomycin, the “Stability result, % (HPLC potency)” value ([1]; Tobramycin-Vancomycin System, aqueous solution, 1.5 % tobramycin, 5% vancomycin, no lidocaine, stored at −4° C. in a dark place, Day 0) is reported as 108%, the “Stability result, % (HPLC potency)” value ([1]; Tobramycin-Vancomycin System, aqueous solution, 1.5 % tobramycin, 5% vancomycin, no lidocaine, stored at −4° C. in a dark place, Day 30) is reported as 108% and the “Stability result, % (HPLC potency)” value ([1]; Tobramycin-Vancomycin System, aqueous solution, 1.5 % tobramycin, 5% vancomycin, no lidocaine, stored at −4° C. in a dark place, Day 60) is reported as 106%. For the same compound, the “Stability result, % (HPLC potency)” value ([1]; Tobramycin-Vancomycin System, aqueous solution, 1.5 % tobramycin, 5% vancomycin, no lidocaine, stored at −4° C. in a dark place, Day 90) was 107%, the “Stability result, % (HPLC potency)” value ([1]; Tobramycin-Vancomycin System, aqueous solution, 1.5 % tobramycin, 5% vancomycin, no lidocaine, stored at −4° C. in a dark place, Day 120) was 91% and the “Stability result, % (HPLC potency)” value ([1]; Tobramycin-Vancomycin System, aqueous solution, 1.5 % tobramycin, 5% vancomycin, no lidocaine, stored at −4° C. in a dark place, Day 150) was 83%. For the same compound, the “Stability result, % (HPLC potency)” value ([1]; Tobramycin-Vancomycin System, aqueous solution, 1.5 % tobramycin, 5% vancomycin, no lidocaine, stored at −4° C. in a dark place, Day 180) was 81%, the “Stability result, % (HPLC potency)” value ([1]; Vancomycin alone, 5.0 % aqueous solution, stored in a dark place at room temperature, Day 0) was 113% and the “Stability result, % (HPLC potency)” value ([1]; Vancomycin alone, 5.0 % aqueous solution, stored in a dark place at room temperature, Day 30) was 106%. The “Stability result, % (HPLC potency)” value ([1]; Vancomycin alone, 5.0 % aqueous solution, stored in a dark place at room temperature, Day 60) was 111%, the “Stability result, % (HPLC potency)” value ([1]; Vancomycin alone, 5.0 % aqueous solution, stored in a dark place at room temperature, Day 90) was 106% and the concentration of vancomycin ([1]; after 120 days storage, system having no lidocaine (Table 4)) was at most 91%. The “Stability of the composition (assay %)” value ([1]; Day 0) was 104.9%, the “Stability of the composition (assay %)” value ([1]; Day 30) was 104.0% and the “Stability of the composition (assay %)” value ([1]; Day 60) was 99.1%. For the same compound, the “Stability of the composition (assay %)” value ([1]; Day 90) was 99.8%, the “Stability of the composition (assay %)” value ([1]; Day 180) was 100.5% and the storage stability alone ([1]; each antibiotic alone, 180 days (Tables 2 and 3)) was “withstood the storage for 180 days very well”. For the same compound, the concentration of vancomycin ([1]; same storage times (120 days and after), lidocaine present in the composition (Table 1)) was “at least 108%”.
